Assay results: ChEMBL document CHEMBL5223166, “Thienopyrimidine Derivatives as GPR55 Receptor Antagonists: Insight into Structure-Activity Relationship” (ACS Med Chem Lett, 2023)
Blank lines part the entries; values can stand above or below the compound they belong to. Activity calls are given as the source filed them. The calls are words filed in the database; no cut-off is given here.

Experiments:
[1] = biological target: T1, G-protein coupled receptor 55 (Homo sapiens, UniProt Q9Y2T6); test: Antagonist activity at beta-galactosidase fused human GPR55 expressed in CHO cells assessed as inhibition of LPI-induced receptor activation by measuring beta-arrestin 2 recruitment at upto 10 uM incubated for 90 mins by PathHunter chemiluminescence based assay; format: cell-based
Cannabinoid receptor 1 = Cannabinoid receptor 1 (Homo sapiens, UniProt P21554); test: Displacement of [3H]CP55940 from human CB1 receptor expressed in HEK293 cell membranes assessed as inhibition constant incubated for 90 mins by liquid scintillation spectrometry analysis; parameters: species or system Membrane
Cannabinoid receptor 2 = Cannabinoid receptor 2 (Homo sapiens, UniProt P34972); test: Displacement of [3H]CP55940 from human CB2 receptor expressed in HEK293 cell membranes assessed as inhibition constant incubated for 90 mins by liquid scintillation spectrometry analysis; parameters: species or system Membrane
[2] = biological target: T1, G-protein coupled receptor 55; test: Antagonist activity at human GPR55 expressed in human U2OS cells assessed as inhibition of LPI-induced receptor activation by measuring beta-arrestin 2 recruitment preincubated for 30 mins followed by LPI addition and measured after 75 mins by microplate reader analysis; format: cell-based
[3] = biological target: T1, G-protein coupled receptor 55; test: Antagonist activity at beta-galactosidase fused human GPR55 expressed in CHO cells assessed as inhibition of LPI-induced receptor activation by measuring beta-arrestin 2 recruitment incubated for 90 mins by PathHunter chemiluminescence based assay; format: cell-based
[4] = biological target: T1, G-protein coupled receptor 55; test: Antagonist activity at human GPR55 expressed in HEK293 cells coexpressing serum response element assessed as inhibition of LPI-induced MAPK/ERK signalling pathway by measuring SRE response incubated for 5 hrs in serum-free medium by luciferin based bioluminescence analysis; format: cell-based
[5] = biological target: T1, G-protein coupled receptor 55; test: Inverse agonist activity at human GPR55 expressed in HEK293 cells coexpressing serum response element assessed as reduction in MAPK/ERK signalling pathway by measuring SRE response incubated for 5 hrs in serum-free medium by luciferin based bioluminescence analysis; format: cell-based
CHO = test: Cytotoxicity against CHO cells assessed as reduction in cell viability at upto 10 uM incubated for 24 hrs by XTT assay; format: toxicity, cell-based, Cricetulus griseus; conditions: chinese hamster

T1 sequence (Q9Y2T6 whole entry, the tested form may be a part): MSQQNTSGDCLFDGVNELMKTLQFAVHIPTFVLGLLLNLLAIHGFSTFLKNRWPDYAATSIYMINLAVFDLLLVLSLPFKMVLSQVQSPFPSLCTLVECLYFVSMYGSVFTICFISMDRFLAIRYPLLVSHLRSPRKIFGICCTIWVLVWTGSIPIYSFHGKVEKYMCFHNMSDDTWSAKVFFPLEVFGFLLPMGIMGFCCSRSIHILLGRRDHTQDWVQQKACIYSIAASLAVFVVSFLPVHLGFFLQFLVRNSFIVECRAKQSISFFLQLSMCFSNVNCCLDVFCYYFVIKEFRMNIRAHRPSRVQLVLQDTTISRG
Cannabinoid receptor 2, sequence (P34972 whole entry): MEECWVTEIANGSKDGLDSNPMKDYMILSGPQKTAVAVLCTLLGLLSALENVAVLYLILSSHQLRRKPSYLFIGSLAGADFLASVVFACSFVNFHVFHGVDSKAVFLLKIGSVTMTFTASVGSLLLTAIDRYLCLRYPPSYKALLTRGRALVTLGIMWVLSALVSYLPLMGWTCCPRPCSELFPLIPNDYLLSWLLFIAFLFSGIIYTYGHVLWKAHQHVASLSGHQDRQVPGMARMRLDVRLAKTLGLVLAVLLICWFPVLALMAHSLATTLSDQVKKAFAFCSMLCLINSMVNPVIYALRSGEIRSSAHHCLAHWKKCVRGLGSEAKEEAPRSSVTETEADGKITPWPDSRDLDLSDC
Cannabinoid receptor 1, sequence (P21554 whole entry): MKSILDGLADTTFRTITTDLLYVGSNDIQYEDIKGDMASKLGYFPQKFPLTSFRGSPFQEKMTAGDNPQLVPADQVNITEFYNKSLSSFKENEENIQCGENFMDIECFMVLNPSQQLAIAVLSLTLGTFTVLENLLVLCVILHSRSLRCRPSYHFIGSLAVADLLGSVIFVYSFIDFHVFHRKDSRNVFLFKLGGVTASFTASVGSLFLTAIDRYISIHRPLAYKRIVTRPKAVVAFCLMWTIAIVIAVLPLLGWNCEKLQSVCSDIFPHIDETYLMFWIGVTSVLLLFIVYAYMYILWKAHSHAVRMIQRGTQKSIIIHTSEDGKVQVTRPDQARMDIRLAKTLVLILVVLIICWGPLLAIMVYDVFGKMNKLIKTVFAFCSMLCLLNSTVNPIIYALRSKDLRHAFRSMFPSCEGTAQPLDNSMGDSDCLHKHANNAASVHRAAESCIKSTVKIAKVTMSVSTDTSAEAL

- inhibition [1]: inactive
Structure (SMILES): Cc1c(N2CCN(C(=O)c3ccco3)CC2)nc(C)n(C)c1=O

Structure (SMILES): CC1(C)CCc2c(sc3nc(CO)nc(N4CCN(C(=O)c5ccco5)CC4)c23)C1
- Ki (Cannabinoid receptor 1): > 4 µM
- Ki (Cannabinoid receptor 2): > 4 µM

Structure (SMILES): O=C(c1ccco1)N1CCN(c2nc(CCl)nc3sc4c(c23)CCCC4)CC1
- Ki (Cannabinoid receptor 1): > 4 µM
- Ki (Cannabinoid receptor 2): > 4 µM

- IC50 [2]: 0.43 µM
Structure (SMILES): Cc1nc(N2CCN(C(=O)c3ccco3)CC2)c2c3c(sc2n1)CC(C)CC3 (stereo not drawn)

Structure (SMILES): Cc1nc(N2CCN(C(=O)c3ccco3)CC2)c2c3c(sc2n1)CCCC3
- IC50 [3]: 2.02 µM
- IC50 [4]: 7.5 µM

Structure (SMILES): O=c1cnc(Cl)c[nH]1
- Ki (Cannabinoid receptor 1): > 4 µM
- Ki (Cannabinoid receptor 2): > 4 µM

Structure (SMILES): CC1(C)CCc2c(sc3nc(CCN4CCOCC4)nc(N4CCN(C(=O)c5ccco5)CC4)c23)C1
- inhibition [1]: inactive
- Ki (Cannabinoid receptor 1): > 4 µM
- Ki (Cannabinoid receptor 2): > 4 µM

Structure (SMILES): CC1(C)CCc2c(sc3nc(CCO)nc(N4CCN(C(=O)c5ccco5)CC4)c23)C1
- IC50 [3]: 11.7 µM

Structure (SMILES): Cc1nc(Nc2ccc(S(=O)(=O)Nc3onc(C)c3C)cc2)c2c3c(sc2n1)CCCC3
- IC50 [3]: 29.3 µM

Structure (SMILES): Cc1cc(C)c2nc(-c3ccccn3)cc(C(=O)O)c2c1
- Ki (Cannabinoid receptor 1): > 4 µM
- Ki (Cannabinoid receptor 2): > 4 µM

Structure (SMILES): Cc1nc(O)c(C)c(Cl)n1
- Ki (Cannabinoid receptor 1): > 4 µM
- Ki (Cannabinoid receptor 2): > 4 µM

Structure (SMILES): Cc1nc(N2CCN(C(=O)c3ccco3)CC2)c2c(n1)sc1ccccc12
- Ki (Cannabinoid receptor 1): > 4 µM
- Ki (Cannabinoid receptor 2): > 4 µM

- inhibition [1]: inactive
Structure (SMILES): Cc1nc(O)c(C)c(N2CCN(C(=O)c3ccco3)CC2)n1

Structure (SMILES): Cc1nc(N2CCCN(C(=O)c3ccco3)CC2)c2c3c(sc2n1)CCCC3
- Ki (Cannabinoid receptor 1): > 4 µM
- Ki (Cannabinoid receptor 2): > 4 µM

Structure (SMILES): Cc1nc(Nc2ccc(S(=O)(=O)Nc3onc(C)c3C)cc2)c2c3c(sc2n1)CC(C)(C)CC3
- IC50 [3]: 3.35 µM

Structure (SMILES): Cc1ccc2c(c1)sc1nc(C)nc(N3CCN(C(=O)c4ccco4)CC3)c12
- Ki (Cannabinoid receptor 1): > 4 µM
- Ki (Cannabinoid receptor 2): > 4 µM

- inhibition [1]: inactive
Structure (SMILES): O=C(c1ccco1)N1CCN(c2ncnc3sc(-c4ccccc4)cc23)CC1

Structure (SMILES): Cc1nc(N2CCN(C(=O)c3ccco3)CC2)c2c3c(sc2n1)CC(C)(C)CC3
- EC50 [5]: 0.9 µM
- Ki (Cannabinoid receptor 1): > 4 µM
- IC50 [3]: 0.28 µM
- IC50 [4]: 1.5 µM
- Ki (Cannabinoid receptor 2): > 4 µM
- Activity (CHO): Non-Toxic

Structure (SMILES): COCc1nc(N2CCN(C(=O)c3ccco3)CC2)c2c3c(sc2n1)CC(C)(C)CC3
- inhibition [1]: inactive
- Ki (Cannabinoid receptor 1): > 4 µM
- Ki (Cannabinoid receptor 2): > 4 µM

- inhibition [1]: inactive
Structure (SMILES): O=C(c1ccco1)N1CCN(c2c[nH]c(=O)cn2)CC1

- inhibition [1]: inactive
Structure (SMILES): Cc1cc(C)c2nc(-c3ccccn3)cc(C(=O)N3CCN(C(=O)c4ccco4)CC3)c2c1

- inhibition [1]: inactive
Structure (SMILES): Cn1ncc2ncnc(N3CCN(C(=O)c4ccco4)CC3)c21

Structure (SMILES): Cc1c(Cl)nc(C)n(C)c1=O
- Ki (Cannabinoid receptor 1): > 4 µM
- Ki (Cannabinoid receptor 2): > 4 µM

- inhibition [1]: inactive
Structure (SMILES): CC1(C)CCc2c(sc3nc(CN4CCOCC4)nc(N4CCN(C(=O)c5ccco5)CC4)c23)C1

Structure (SMILES): O=C(c1ccco1)N1CCN(c2ncnc3sc4c(c23)CCCC4)CC1
- Ki (Cannabinoid receptor 1): > 4 µM
- IC50 [3]: 0.68 µM
- Ki (Cannabinoid receptor 2): > 4 µM

- inhibition [1]: inactive
Structure (SMILES): O=C(c1ccco1)N1CCN(c2ncnn3cccc23)CC1

Structure (SMILES): COCCc1nc(N2CCN(C(=O)c3ccco3)CC2)c2c3c(sc2n1)CC(C)(C)CC3
- inhibition [1]: inactive
- Ki (Cannabinoid receptor 1): > 4 µM
- Ki (Cannabinoid receptor 2): > 4 µM

- IC50 [2]: 0.86 µM
Structure (SMILES): O=C(c1ccco1)N1CCN(c2nc(C3CC3)nc3sc4c(c23)CCCC4)CC1

Structure (SMILES): Cc1nc(N2CCCN(C(=O)c3ccco3)CC2)c2c3c(sc2n1)CC(C)(C)CC3
- Ki (Cannabinoid receptor 1): > 4 µM
- Ki (Cannabinoid receptor 2): > 4 µM
